Experimental data reported in PubChem BioAssay (NCI).
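Cells were grown in 96-well plates and exposed to each compound for 48 hours at five concentrations; endpoints were interpolated linearly between bracketing concentrations, or set to the highest concentration if not reached. Definition used: TGI = concentration required for complete inhibition of growth.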

Assays:
Assay in all cases: inhibition of tumour cell growth, NCI panel, 48 h
[1] = test system: K-562 leukemia
[2] = test system: A549 NSCLC
[3] = test system: SNB-75 CNS
[4] = test system: OVCAR-4 ovarian
[5] = test system: MCF7 breast
[6] = test system: MOLT-4 leukemia
[7] = test system: EKVX NSCLC
[8] = test system: TK-10 renal
[9] = test system: SF-295 CNS
[10] = test system: NCI-H23 lung
[11] = test system: UO-31 renal
[12] = test system: CAKI-1 renal
[13] = test system: SNB-19 CNS
[14] = test system: SW-620 colon
[15] = test system: RPMI-8226 leukemia
[16] = test system: OVCAR-5 ovarian
[17] = test system: KM12 colon
[18] = test system: ACHN renal
[19] = test system: SF-268 CNS
[20] = test system: HCT-15 colon
[21] = test system: HOP-62 NSCLC
[22] = test system: SK-OV-3 ovarian
[23] = test system: HT29 colon
[24] = test system: UACC-257 melanoma
[25] = test system: LOX IMVI melanoma
[26] = test system: MDA-MB-231 breast
[27] = test system: SK-MEL-5 melanoma
[28] = test system: PC-3 prostate
[29] = test system: HL-60(TB) leukemia
[30] = test system: HCT-116 colon
[31] = test system: A498 renal
[32] = test system: HS 578T breast
[33] = test system: UACC-62 melanoma
[34] = test system: CCRF-CEM leukemia
[35] = test system: NCI/ADR-RES ovarian
[36] = test system: SK-MEL-2 melanoma
[37] = test system: OVCAR-8 ovarian
[38] = test system: MDA-N
[39] = test system: T-47D breast
[40] = test system: MDA-MB-435
[41] = test system: M14 melanoma
[42] = test system: 786-0 renal
[43] = test system: NCI-H522 lung
[44] = test system: SN12C renal
[45] = test system: OVCAR-3 ovarian
[46] = test system: HOP-92 NSCLC
[47] = test system: SF-539 CNS
[48] = test system: SK-MEL-28 melanoma
[49] = test system: DU-145 prostate
[50] = test system: NCI-H460 lung
[51] = test system: HCC-2998 colon
[52] = test system: MALME-3M melanoma
[53] = test system: IGROV1 ovarian
[54] = test system: U251 CNS
[55] = test system: COLO 205 colon
[56] = test system: SR leukemia
[57] = test system: RXF 393 renal
[58] = test system: BT-549 breast
[59] = test system: NCI-H226 lung

`CO[C@]12CC(=O)C3(C(C[C@H]4CC5CC=C6C[C@@H](OC(C)=O)CC[C@]6(OC(C)=O)C5C[C@@]43C)C1)C1C[C@H]3[C@@H]4CC=C5C[C@@H](OC(C)=O)CC[C@]5(OC(C)=O)[C@H]4CC[C@]3(C)C12` (stereo partly drawn) gave a TGI [1] of over 100 µM, a TGI [2] of over 100 µM and a TGI [3] of 94.2 µM. For the same compound, the TGI [4] was 24.4 µM, the TGI [5] was over 100 µM and the TGI [6] was 63.3 µM. For the same compound, the TGI [7] was 54.9 µM, the TGI [8] was over 100 µM and the TGI [9] was 54 µM. For the same compound, the TGI [10] was 39 µM, the TGI [11] was 52.6 µM and the TGI [12] was 34.3 µM. It also gave a TGI [13] of 63.6 µM, a TGI [14] of over 100 µM and a TGI [15] of over 100 µM. It also gave a TGI [16] of 43.5 µM, a TGI [17] of 54.3 µM and a TGI [18] of over 100 µM. The TGI [19] was over 100 µM, the TGI [20] was over 100 µM and the TGI [21] was 37.9 µM. It also gave a TGI [22] of over 100 µM, a TGI [23] of 29.5 µM and a TGI [24] of over 100 µM. The TGI [25] was 53.4 µM, the TGI [26] was 30.2 µM and the TGI [27] was 14.7 µM. For the same compound, the TGI [28] was over 100 µM, the TGI [29] was over 100 µM and the TGI [30] was over 100 µM. For the same compound, the TGI [31] was 66.1 µM, the TGI [32] was 88.9 µM and the TGI [33] was 79 µM. For the same compound, the TGI [34] was over 100 µM, the TGI [35] was 51.3 µM and the TGI [36] was 41.1 µM. For the same compound, the TGI [37] was over 100 µM, the TGI [38] was 30.6 µM and the TGI [39] was 33.4 µM. The TGI [40] was over 100 µM, the TGI [41] was 47.2 µM and the TGI [42] was over 100 µM. It also gave a TGI [43] of 31.7 µM, a TGI [44] of 29.8 µM and a TGI [45] of 56.4 µM. For the same compound, the TGI [46] was over 100 µM, the TGI [47] was 37.2 µM and the TGI [48] was over 100 µM. The TGI [49] was 41.4 µM, the TGI [50] was 47.8 µM and the TGI [51] was 41.6 µM. It also gave a TGI [52] of 35 µM, a TGI [53] of 42.8 µM and a TGI [54] of over 100 µM. The TGI [55] was 12.7 µM and the TGI [56] was over 100 µM.

`O=C(N=Nc1cc(Cl)ccc1Cl)NNc1cc(Cl)ccc1Cl` gave a TGI [1] of 54.6 µM, a TGI [3] of 57.5 µM and a TGI [5] of 36.4 µM. For the same compound, the TGI [9] was over 100 µM, the TGI [10] was 53.1 µM and the TGI [11] was 29 µM. The TGI [12] was 43.7 µM, the TGI [57] was 25 µM and the TGI [15] was 33.8 µM. The TGI [16] was 39.8 µM, the TGI [17] was 33.9 µM and the TGI [20] was 64.4 µM. It also gave a TGI [21] of 40.7 µM, a TGI [22] of 63 µM and a TGI [23] of 37 µM. It also gave a TGI [26] of 40.1 µM, a TGI [27] of 25.3 µM and a TGI [28] of 22.8 µM. The TGI [29] was 32.4 µM, the TGI [30] was 33.6 µM and the TGI [31] was 82.3 µM. The TGI [32] was 52.6 µM, the TGI [33] was 27 µM and the TGI [34] was 49.8 µM. It also gave a TGI [35] of 61.2 µM, a TGI [36] of 51.5 µM and a TGI [37] of over 100 µM. For the same compound, the TGI [38] was 84.4 µM, the TGI [39] was over 100 µM and the TGI [40] was 30 µM. For the same compound, the TGI [41] was 32.5 µM, the TGI [43] was 29.9 µM and the TGI [44] was 52.5 µM. The TGI [45] was 32.7 µM, the TGI [46] was 32.9 µM and the TGI [48] was 61.2 µM. It also gave a TGI [49] of over 100 µM, a TGI [50] of 44.5 µM and a TGI [51] of 94.1 µM. For the same compound, the TGI [52] was 82.1 µM, the TGI [53] was 57.3 µM and the TGI [54] was 31.3 µM. For the same compound, the TGI [55] was 41.1 µM and the TGI [56] was over 100 µM.

`c1ccc2sc(SCSc3nc4ccccc4s3)nc2c1` gave a TGI [1] of over 100 µM, a TGI [2] of over 100 µM and a TGI [3] of over 100 µM. It also gave a TGI [4] of over 100 µM, a TGI [6] of over 100 µM and a TGI [7] of over 100 µM. The TGI [8] was over 100 µM, the TGI [9] was over 100 µM and the TGI [10] was over 100 µM. The TGI [11] was over 100 µM, the TGI [12] was over 100 µM and the TGI [57] was over 100 µM. It also gave a TGI [13] of over 100 µM, a TGI [14] of over 100 µM and a TGI [15] of over 100 µM. For the same compound, the TGI [16] was over 100 µM, the TGI [17] was over 100 µM and the TGI [18] was over 100 µM. It also gave a TGI [19] of over 100 µM, a TGI [20] of over 100 µM and a TGI [21] of over 100 µM. The TGI [23] was over 100 µM, the TGI [24] was over 100 µM and the TGI [58] was over 100 µM. For the same compound, the TGI [25] was over 100 µM, the TGI [26] was over 100 µM and the TGI [27] was over 100 µM. It also gave a TGI [28] of over 100 µM, a TGI [30] of over 100 µM and a TGI [31] of over 100 µM. It also gave a TGI [32] of over 100 µM, a TGI [33] of over 100 µM and a TGI [34] of over 100 µM. The TGI [35] was over 100 µM, the TGI [59] was over 100 µM and the TGI [36] was over 100 µM. The TGI [37] was over 100 µM, the TGI [38] was over 100 µM and the TGI [39] was over 100 µM. For the same compound, the TGI [40] was over 100 µM, the TGI [41] was over 100 µM and the TGI [42] was over 100 µM. The TGI [43] was over 100 µM, the TGI [44] was over 100 µM and the TGI [45] was over 100 µM. It also gave a TGI [46] of over 100 µM, a TGI [48] of over 100 µM and a TGI [49] of over 100 µM. For the same compound, the TGI [50] was over 100 µM, the TGI [51] was over 100 µM and the TGI [52] was over 100 µM. It also gave a TGI [53] of over 100 µM, a TGI [54] of over 100 µM and a TGI [56] of over 100 µM.

`CCOC(=O)NC(=S)NN(C)C1=NCC(C)(C)S1` gave a TGI [1] of over 100 µM, a TGI [2] of over 100 µM and a TGI [3] of over 100 µM. The TGI [5] was over 100 µM, the TGI [6] was over 100 µM and the TGI [7] was over 100 µM. It also gave a TGI [8] of over 100 µM, a TGI [9] of over 100 µM and a TGI [11] of over 100 µM. For the same compound, the TGI [12] was over 100 µM, the TGI [57] was over 100 µM and the TGI [13] was over 100 µM. The TGI [14] was over 100 µM, the TGI [15] was over 100 µM and the TGI [16] was over 100 µM. It also gave a TGI [17] of over 100 µM, a TGI [18] of over 100 µM and a TGI [20] of over 100 µM. It also gave a TGI [21] of over 100 µM, a TGI [22] of over 100 µM and a TGI [24] of over 100 µM. For the same compound, the TGI [58] was over 100 µM, the TGI [25] was over 100 µM and the TGI [26] was over 100 µM. It also gave a TGI [27] of over 100 µM, a TGI [28] of over 100 µM and a TGI [29] of over 100 µM. It also gave a TGI [30] of over 100 µM, a TGI [31] of over 100 µM and a TGI [32] of over 100 µM. For the same compound, the TGI [33] was over 100 µM, the TGI [34] was over 100 µM and the TGI [36] was over 100 µM. The TGI [38] was over 100 µM, the TGI [39] was over 100 µM and the TGI [40] was over 100 µM. The TGI [42] was over 100 µM, the TGI [43] was over 100 µM and the TGI [44] was over 100 µM. It also gave a TGI [45] of over 100 µM, a TGI [46] of over 100 µM and a TGI [47] of over 100 µM. For the same compound, the TGI [48] was over 100 µM, the TGI [49] was over 100 µM and the TGI [50] was over 100 µM. It also gave a TGI [53] of over 100 µM, a TGI [54] of over 100 µM and a TGI [55] of over 100 µM. For the same compound, the TGI [56] was over 100 µM.
